From ChEMBL document CHEMBL1128892, “Pharmacological evaluation of UK-14,304 analogs at cloned human adrenergic receptors” (Bioorg Med Chem Lett, 1995)
pEC50, pKi: −log10 of the molar value. The source made the active and inactive calls. The calls are words filed in the database; no cut-off is given here.

Experiments:
[1] = biological target: T1, Alpha-2C adrenergic receptor (Homo sapiens, UniProt P18825); test: Binding affinity for human Alpha-2C adrenergic receptor from cultured LM(tk-) cells using [3H]- prazosin
T1 sequence (P18825 whole entry): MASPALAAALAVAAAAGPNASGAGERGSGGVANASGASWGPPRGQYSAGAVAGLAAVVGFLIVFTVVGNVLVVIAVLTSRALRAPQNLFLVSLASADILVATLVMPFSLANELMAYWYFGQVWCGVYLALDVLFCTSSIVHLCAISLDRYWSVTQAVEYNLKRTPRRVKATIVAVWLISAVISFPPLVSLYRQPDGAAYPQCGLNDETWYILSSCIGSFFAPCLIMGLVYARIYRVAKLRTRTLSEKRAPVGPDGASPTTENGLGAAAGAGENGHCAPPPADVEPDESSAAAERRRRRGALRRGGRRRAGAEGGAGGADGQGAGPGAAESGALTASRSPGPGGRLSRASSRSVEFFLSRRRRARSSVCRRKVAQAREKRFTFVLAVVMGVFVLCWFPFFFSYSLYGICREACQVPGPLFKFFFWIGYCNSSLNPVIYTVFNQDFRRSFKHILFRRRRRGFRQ

[2] = biological target: T2, Alpha-2A adrenergic receptor (Homo sapiens) (UniProt P08913); test: Alpha-2A adrenergic receptor agonistic potency as inhibition of forskolin-stimulated cyclic adenosine monophosphate synthesis at 100 uM; Not active; assay type: functional
T2 sequence (whole entry): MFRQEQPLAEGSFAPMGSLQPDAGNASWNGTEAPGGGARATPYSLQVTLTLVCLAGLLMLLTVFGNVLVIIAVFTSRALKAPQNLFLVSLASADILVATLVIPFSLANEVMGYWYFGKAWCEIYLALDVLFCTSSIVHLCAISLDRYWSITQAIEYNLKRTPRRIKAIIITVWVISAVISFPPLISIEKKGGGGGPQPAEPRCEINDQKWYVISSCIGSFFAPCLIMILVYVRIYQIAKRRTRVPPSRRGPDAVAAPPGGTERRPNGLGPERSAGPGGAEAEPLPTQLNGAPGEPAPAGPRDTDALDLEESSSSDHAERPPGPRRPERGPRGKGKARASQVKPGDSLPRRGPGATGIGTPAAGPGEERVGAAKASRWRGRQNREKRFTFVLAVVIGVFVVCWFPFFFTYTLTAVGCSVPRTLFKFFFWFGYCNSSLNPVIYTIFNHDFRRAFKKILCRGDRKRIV

[3] = biological target: T3, Alpha-2B adrenergic receptor (Homo sapiens) (UniProt P18089); test: The Alpha-2B adrenergic receptor agonistic potency for its ability to inhibit forskolin-stimulated synthesis of cyclic adenosine monophosphate at 100 uM concentration; Not active; assay type: functional
T3 sequence (whole entry): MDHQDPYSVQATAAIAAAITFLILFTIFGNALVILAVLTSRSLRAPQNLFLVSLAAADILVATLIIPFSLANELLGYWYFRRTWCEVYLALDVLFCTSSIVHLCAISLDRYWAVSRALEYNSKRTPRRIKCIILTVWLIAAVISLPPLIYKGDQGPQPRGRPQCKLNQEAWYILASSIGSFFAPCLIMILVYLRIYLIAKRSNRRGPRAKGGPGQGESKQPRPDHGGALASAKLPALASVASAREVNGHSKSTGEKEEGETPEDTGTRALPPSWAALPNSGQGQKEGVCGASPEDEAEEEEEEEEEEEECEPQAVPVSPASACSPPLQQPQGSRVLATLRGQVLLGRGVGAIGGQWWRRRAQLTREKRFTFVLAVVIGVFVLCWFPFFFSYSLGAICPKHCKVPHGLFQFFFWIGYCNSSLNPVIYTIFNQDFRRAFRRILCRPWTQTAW

[4] = biological target: T4, Alpha-2A adrenergic receptor (Homo sapiens, UniProt P08913); test: Binding affinity for human Alpha-2A adrenergic receptor from cultured LM(tk-) cells using [3H]rauwolscine
T4 sequence (P08913 whole entry): T2 sequence (whole entry)

[5] = biological target: T5, Alpha-1A adrenergic receptor (Homo sapiens, UniProt P35348); test: Binding affinity for human Alpha-1A adrenergic receptor from cultured LM(tk-) cells using [3H]-prazosin
T5 sequence (P35348 whole entry): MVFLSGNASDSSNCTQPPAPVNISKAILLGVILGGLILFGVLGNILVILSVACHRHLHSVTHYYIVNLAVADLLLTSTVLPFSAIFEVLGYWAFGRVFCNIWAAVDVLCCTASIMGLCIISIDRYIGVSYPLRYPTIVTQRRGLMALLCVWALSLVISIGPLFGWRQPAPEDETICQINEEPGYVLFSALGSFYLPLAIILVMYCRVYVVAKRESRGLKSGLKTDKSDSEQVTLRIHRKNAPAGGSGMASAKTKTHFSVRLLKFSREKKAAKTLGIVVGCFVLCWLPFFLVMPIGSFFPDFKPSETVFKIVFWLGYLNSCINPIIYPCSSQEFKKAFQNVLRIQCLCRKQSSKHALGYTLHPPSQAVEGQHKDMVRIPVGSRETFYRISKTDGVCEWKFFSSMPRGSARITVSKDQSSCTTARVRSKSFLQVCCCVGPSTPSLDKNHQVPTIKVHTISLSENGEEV

[6] = biological target: T2, Alpha-2A adrenergic receptor (Homo sapiens); test: Inhibitory activity against Alpha-2A adrenergic receptor relative to norepinephrine at 100 uM; Not active
[7] = biological target: T6, Alpha-2B adrenergic receptor (Homo sapiens, UniProt P18089); test: Binding affinity for human Alpha-2B adrenergic receptor from cultured Y-1 cells using [3H]rauwolscine; assay type: cell-based
T6 sequence (P18089 whole entry): T3 sequence (whole entry)

[8] = biological target: T3, Alpha-2B adrenergic receptor (Homo sapiens); test: Inhibitory activity against Alpha-2B adrenergic receptor relative to norepinephrine at 100 uM; Not active
[9] = biological target: T7, Alpha-1D adrenergic receptor (Homo sapiens, UniProt P25100); test: Binding affinity for human Alpha-1D adrenergic receptor from cultured LM(tk-) cells using [3H]- prazosin
T7 sequence (P25100 whole entry): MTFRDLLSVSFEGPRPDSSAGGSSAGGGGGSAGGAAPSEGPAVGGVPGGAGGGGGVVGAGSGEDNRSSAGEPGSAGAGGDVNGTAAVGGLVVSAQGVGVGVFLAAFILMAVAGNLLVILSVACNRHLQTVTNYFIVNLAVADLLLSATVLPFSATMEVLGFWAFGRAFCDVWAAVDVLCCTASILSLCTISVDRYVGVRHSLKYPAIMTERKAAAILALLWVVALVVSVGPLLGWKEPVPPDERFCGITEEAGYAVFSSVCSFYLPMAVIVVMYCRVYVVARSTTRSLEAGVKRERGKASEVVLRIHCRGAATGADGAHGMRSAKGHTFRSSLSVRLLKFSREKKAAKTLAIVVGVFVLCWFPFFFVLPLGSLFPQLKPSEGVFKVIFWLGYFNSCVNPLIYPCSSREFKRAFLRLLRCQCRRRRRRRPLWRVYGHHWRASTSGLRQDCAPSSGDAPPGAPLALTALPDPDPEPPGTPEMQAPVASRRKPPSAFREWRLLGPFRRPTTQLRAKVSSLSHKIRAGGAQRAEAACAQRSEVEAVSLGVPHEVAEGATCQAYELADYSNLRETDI

[10] = biological target: T8, Alpha-1B adrenergic receptor (Homo sapiens, UniProt P35368); test: Binding affinity for human Alpha-1B adrenergic receptor from cultured LM(tk-) cells using [3H]prazosin
T8 sequence (P35368 whole entry): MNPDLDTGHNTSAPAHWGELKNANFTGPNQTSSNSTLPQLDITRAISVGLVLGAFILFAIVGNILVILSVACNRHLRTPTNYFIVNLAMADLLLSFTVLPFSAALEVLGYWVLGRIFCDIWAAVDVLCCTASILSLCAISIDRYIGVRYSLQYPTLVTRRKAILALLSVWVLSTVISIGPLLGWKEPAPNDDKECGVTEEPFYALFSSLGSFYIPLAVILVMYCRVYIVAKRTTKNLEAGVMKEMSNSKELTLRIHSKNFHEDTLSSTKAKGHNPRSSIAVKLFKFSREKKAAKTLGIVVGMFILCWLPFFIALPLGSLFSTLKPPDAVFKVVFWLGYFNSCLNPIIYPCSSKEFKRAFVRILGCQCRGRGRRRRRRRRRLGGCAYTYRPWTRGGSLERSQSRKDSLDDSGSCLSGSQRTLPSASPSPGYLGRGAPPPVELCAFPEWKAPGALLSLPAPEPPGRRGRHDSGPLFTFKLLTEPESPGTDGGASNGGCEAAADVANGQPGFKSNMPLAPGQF

[11] = biological target: T9, Alpha-2C adrenergic receptor (Homo sapiens) (UniProt P18825); test: Alpha-2C adrenergic receptor agonistic potency as inhibition of forskolin-stimulated cyclic adenosine monophosphate synthesis at 100 uM; Not active; assay type: functional
T9 sequence (whole entry): T1 sequence (P18825 whole entry)

[12] = biological target: T9, Alpha-2C adrenergic receptor (Homo sapiens); test: Inhibitory activity against Alpha-2C adrenergic receptor relative to norepinephrine at 100 uM; Not active
[13] = biological target: T4, Alpha-2A adrenergic receptor; test: Alpha-2A adrenergic receptor agonistic potency as inhibition of forskolin-stimulated synthesis of cyclic adenosine monophosphate; assay type: functional
[14] = biological target: T1, Alpha-2C adrenergic receptor; test: Alpha-2C adrenergic receptor agonistic potency as inhibition of forskolin-stimulated cyclic adenosine monophosphate synthesis; assay type: functional
[15] = biological target: T2, Alpha-2A adrenergic receptor (Homo sapiens); test: Inhibitory activity against Alpha-2A adrenergic receptor relative to norepinephrine
[16] = biological target: T9, Alpha-2C adrenergic receptor (Homo sapiens); test: Inhibitory activity against Alpha-2C adrenergic receptor relative to norepinephrine
[17] = biological target: T6, Alpha-2B adrenergic receptor; test: Binding affinity for human Alpha-2B adrenergic receptor from cultured LM(tk-) cells using [3H]- prazosin
[18] = biological target: T6, Alpha-2B adrenergic receptor; test: Alpha-2B adrenergic receptor agonistic potency as inhibition of forskolin-stimulated cyclic adenosine monophosphate synthesis; assay type: functional
[19] = biological target: T3, Alpha-2B adrenergic receptor (Homo sapiens); test: Inhibitory activity against alpha-2B adrenoceptor relative to norepinephrine at 100 uM; Not active
[20] = biological target: T3, Alpha-2B adrenergic receptor (Homo sapiens); settings: 100 uM
[21] = biological target: T6, Alpha-2B adrenergic receptor; test: Binding affinity for human alpha-2B adrenoceptor from cultured Y-1 cells using [3H]rauwolscine; assay type: cell-based
[22] = biological target: T9, Alpha-2C adrenergic receptor (Homo sapiens); settings: 100 uM

Row | Compound | pKi [1] | Log EC50 [3] | pKi [4] | pKi [5] | pKi [7] | Intrinsic activity [8] | pKi [9] | pKi [10] | Intrinsic activity [12] | pEC50 [13] | pEC50 [14] | Intrinsic activity [15] | Intrinsic activity [16] | also measured
1 | Brc1c(NC2=NCCO2)ccc2nccnc12 | 4.31 | inactive | 4.58 | 4.04 | 4.07 | inactive | 3.99 | 3.85 | inactive |  |  |  |  | Log EC50 [2]: inactive; Intrinsic activity [6]: inactive; Log EC50 [11]: inactive
2 | Brc1c(NC2=N[C@@H]3CCCC[C@@H]3N2)ccc2nccnc12 | 4.94 | inactive | 4.83 | 4.85 | 4.74 | inactive | 4.38 | 3.98 | inactive |  |  |  |  | Log EC50 [2]: inactive; Intrinsic activity [6]: inactive; Log EC50 [11]: inactive
3 | Cc1cnc2c(Br)c(NC3=NCCN3)ccc2n1 | 6.19 | inactive | 7.13 | < 4.00 | 6.49 | inactive | 5.30 | < 4.00 |  | 6.07 | 6.08 | 1 | 0.8 | 
4 | Cc1c(NC2=NCCN2)ccc2nccnc12 | 7.55 |  | 8.14 | 5.83 |  |  | 6.25 | 5.48 |  | 8.92 | 7.85 | 1 | 1 | pKi [17]: 8.05; pEC50 [18]: 7.11
5 | Brc1c(NC2=NCCN2)ccc2c1NCCN2 | 6.67 |  | 8.19 | 5.95 | 7.31 |  | 5.57 | 5.36 |  | 8.55 | 6.98 | 1 | 1 | pEC50 [18]: 6.05
6 | Brc1c(NC2=NCCN2)ccc2nccnc12 [BRIMONIDINE] |  |  |  |  |  |  | 6.03 | 5.27 |  |  |  | 1 | 1 | 
7 | Ic1c(NC2=NCCN2)ccc2nccnc12 | 6.39 |  | 8.17 | 6.01 |  |  | 6.55 | 5.72 |  | 7.94 | 7.26 | 1 | 1 | Intrinsic activity [19]: inactive; Log EC50 [20]: inactive; pKi [21]: 7.37
8 | Clc1c(NC2=NCCN2)ccc2nccnc12 | 6.71 |  | 7.43 | 5.29 | 7.16 |  | 5.62 | 4.98 |  | 8.63 | 7.51 | 1 | 1 | pEC50 [18]: 6.76
9 | Brc1c(NC2=NCCS2)ccc2nccnc12 | 4.55 | inactive | 4.99 | 4.67 | 4.76 | inactive | 4.56 | 4.22 | inactive | 5.56 |  | 0.9 |  | Log EC50 [11]: inactive
10 | c1cnc2cc(NC3=NCCN3)ccc2n1 | 5.85 | inactive | 6.51 | 4.74 | 6.66 | inactive | 4.91 | 5.49 | inactive |  |  |  |  | Log EC50 [2]: inactive; Log EC50 [22]: inactive; Intrinsic activity [6]: inactive
11 | CC1CN=C(Nc2ccc3nccnc3c2Br)N1 (stereo unspecified) | 6.19 | inactive | 5.42 | < 4.00 | 5.49 | inactive | 5.30 | < 4.00 |  | 4.80 | 6.08 | 0.8 | 0.8 | 
